Test results published in article PMC8910920 (International Journal of Molecular Sciences, 2022).

Target: T1, native TRPM8 channels from rat DRG neurons (Rattus norvegicus, UniProt Q8R455)
T1 construct: native TRPM8 channels from rat DRG neurons; endogenous in cells; host or cells: primary DRG neurons (L4-L6) from 6-8 weeks old Sprague-Dawley rats
Assay: Whole-cell voltage-clamp, menthol-activated currents in rat DRG neurons
Format: cell-based
Protocol: We also investigated the effect of RGM8-51 on native TRPM8 channels from rat DRG neurons. Whole-cell patch-clamp recordings from small size DRG neurons evidenced menthol (100 µM)-activated inward currents at a holding voltage of −80 mV (Figure 3A). As expected from results obtained in rTRPM8-expressing HEK293 cells, RGM8-51 (1 µM) inhibited menthol-activated currents.
Voltage-activated Na^+ and K^+ currents and TRPM8-mediated currents were recorded in DRG neurons isolated from 6-8 weeks old Sprague-Dawley rats, as previously described. Rats were sacrificed by cervical dislocation followed by decapitation and lumbar segments of the spinal column were removed and placed in a cold Ca^2+, Mg^2+-free Hank’s solution (Sigma-Aldrich, Madrid, Spain). The bone surrounding the spinal cord was removed and the right L4, L5 and L6 DRG were exposed and pulled out. After removing the roots, DRG were chopped in half and incubated for 30 min at 37°C in Dulbecco’s modified Eagle’s Medium-low glucose (DMEM; Sigma-Aldrich) containing 5 mg/mL collagenase XI (Sigma-Aldrich, Madrid, Spain), 100 U/mL penicillin (Sigma-Aldrich), and 0.1 mg/mL streptomycin (Sigma-Aldrich). Then, the cell suspension was washed with DMEM by centrifugation (300 G, 5 min at 4 °C), filtered through a 100 µm mesh to eliminate cell clumps and washed again by centrifugation. […]
Data were sampled at 10 kHz (EPC10 amplifier with PatchMaster 2.53 software, HEKA Electronics, Lambrecht, Germany) and low-pass filtered at 3 kHz for analysis (PatchMaster 2.53 and GraphPad Prism 6.0, Graphpad Software, San Diego, CA, USA). […] Cell capacitance was measured and used to estimate the current density (J, pA/pF).
Data analysis: For the whole-cell patch-clamp experiments, results are expressed as the percentage of remaining activation of the TRPM8 channel. This is calculated by normalizing the ratio (p2/p1) of testing conditions to the ratio (p2/p1) of the control condition. […]

T1 sequence (Q8R455 whole entry): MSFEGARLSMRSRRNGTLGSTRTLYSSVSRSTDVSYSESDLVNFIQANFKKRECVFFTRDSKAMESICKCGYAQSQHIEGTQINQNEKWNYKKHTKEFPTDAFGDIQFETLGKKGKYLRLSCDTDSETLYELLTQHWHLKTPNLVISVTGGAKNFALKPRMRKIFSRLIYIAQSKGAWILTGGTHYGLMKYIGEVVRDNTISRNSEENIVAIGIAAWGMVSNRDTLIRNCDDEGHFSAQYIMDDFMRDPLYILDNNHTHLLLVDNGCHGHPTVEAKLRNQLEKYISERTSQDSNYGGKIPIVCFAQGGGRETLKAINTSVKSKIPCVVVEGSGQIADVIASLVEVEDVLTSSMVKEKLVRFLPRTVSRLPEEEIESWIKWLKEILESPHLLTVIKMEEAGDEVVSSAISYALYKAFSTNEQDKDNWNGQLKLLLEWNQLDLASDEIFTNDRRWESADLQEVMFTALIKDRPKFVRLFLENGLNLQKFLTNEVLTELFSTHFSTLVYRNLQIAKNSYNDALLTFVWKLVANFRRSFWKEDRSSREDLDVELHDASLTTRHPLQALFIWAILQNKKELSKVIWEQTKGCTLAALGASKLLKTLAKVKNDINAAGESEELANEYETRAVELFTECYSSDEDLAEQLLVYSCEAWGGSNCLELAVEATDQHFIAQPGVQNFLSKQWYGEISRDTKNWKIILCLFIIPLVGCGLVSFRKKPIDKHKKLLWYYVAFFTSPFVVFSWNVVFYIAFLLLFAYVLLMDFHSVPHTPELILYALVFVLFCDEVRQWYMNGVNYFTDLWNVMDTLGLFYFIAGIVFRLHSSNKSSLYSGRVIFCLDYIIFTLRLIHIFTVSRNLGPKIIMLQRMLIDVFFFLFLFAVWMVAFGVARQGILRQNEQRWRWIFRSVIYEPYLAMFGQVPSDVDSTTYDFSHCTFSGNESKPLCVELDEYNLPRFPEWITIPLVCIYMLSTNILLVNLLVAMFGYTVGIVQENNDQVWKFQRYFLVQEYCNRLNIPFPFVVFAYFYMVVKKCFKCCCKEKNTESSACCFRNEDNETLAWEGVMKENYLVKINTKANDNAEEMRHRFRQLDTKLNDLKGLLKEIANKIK

## C[C@@H]1C(=O)N(C[C@H](Cc2ccccc2)N(Cc2ccccc2)Cc2ccccc2)[C@]1(Cc1ccccc1)C(=O)OC(C)(C)C [RGM8-51, 4(S)-Benzyl-3S-methyl-4-(tert-butoxy)carbonyl-1-[(2′S-dibenzylamino-3′-phenyl)prop-1′-yl]-2-oxoazetidine]
1 µM, menthol 100 µM, holding −80 mV
  peak current density of menthol-activated current after compound: 0.51 ± 0.09 pA/pF
DRG neuron, 1 µM, menthol 100 µM, holding −80 mV, n = 8 cells, read-out: Mean peak current inhibition of menthol-activated currents
  inhibition at 1 µM: 65 ± 4.67%
Compound on its own
  effect on baseline current at -80 mV: did not modify on its own the baseline current
